Values after ≈ are worked out from the molar mass of the structure shown. Where two headings read alike, the source gives them in different places.
Assays:
[1] = system: H influenzae/βlactamase negative; assay: MIC90 of Moxifloxacin for bacteria associated with ophthalmic, otic and nasal infections; type: cell-based
Description: (§1) The concentrations of the antibiotics of formula (I) in the compositions of the present invention will vary depending on the intended use of the compositions (e.g., treatment of existing infections or prevention of post-surgical infections), and the relative antimicrobial activity of the specific antibiotic selected. The antimicrobial activity of antibiotics is generally expressed as the minimum concentration required to inhibit the growth of a specified pathogen. This concentration is also referred to as the “minimum inhibitory concentration” or “MIC”. The term “MIC90” refers to the minimum concentration of antibiotic required to inhibit the growth of ninety percent (90%) of the strains of a species. The concentration of an antibiotic required to totally kill a specified bacteria is referred to as the “minimum bactericidal concentration” or “MBC”.

[2] = system: H. influenzae/β-lactamase positive; assay: as above; type: cell-based
Description: as §1

[3] = system: P. aeruginosa; assay: as above; type: cell-based
Description: as §1

[4] = system: S. aureus/methicillin resistant; assay: as above; type: cell-based
Description: as §1

[5] = system: S. aureus/methicillin sensitive; assay: as above; type: cell-based
Description: as §1

[6] = system: S. aureus/quinolone resistant; assay: as above; type: cell-based
Description: as §1

[7] = system: S. epidermidis/methicillin resistant; assay: as above; type: cell-based
Description: as §1

[8] = system: S. epidermidis/methicillin sensitive; assay: as above; type: cell-based
Description: as §1

[9] = system: S. pneumoniae/penicillin resistant; assay: as above; type: cell-based
Description: as §1

[10] = system: S. pneumoniae/penicillin sensitive; assay: as above; type: cell-based
Description: as §1

[11] = system: M. otitidis; assay: as above; type: cell-based, Microbacterium otitidis
Description: as §1

[12] = system: M. alconae; assay: as above; type: cell-based, Microbacterium alconae
Description: as §1

[13] = system: Microbacterium alconae; assay: In vitro activity (MIC) by agar and broth dilution methods against clinical isolates; type: cell-based; settings: for MIC: read-out: minimum inhibitory concentration (MIC)
Procedure: (§2) The activity levels were determined as MIC (minimum inhibitory concentration) values. In order to compare the activity of the compounds of the present invention to other antibiotics, MIC values for representatives quinolones, aminoglycosides, β-lactams and other types of antibiotics were also determined. […] The MCC numbers (e.g., “MCC 10647”) represent separate clinical isolates of the two Microbacterium species tested.

[14] = system: Microbacterium otitidis; assay: as above; type: cell-based; settings: for MIC: read-out: minimum inhibitory concentration (MIC)
Procedure: as §2

Compound | MIC ([13]; clinical isolate MCC 11316) [µg/mL] | MIC ([13]; clinical isolate MCC 11558) [µg/mL] | MIC ([13]; clinical isolate MCC 11639) [µg/mL] | MIC ([13]; clinical isolate MCC 11653) [µg/mL] | MIC ([13]; clinical isolate MCC 11699) [µg/mL] | MIC ([14]; clinical isolate MCC 10647) [µg/mL] | MIC ([14]; clinical isolate MCC 10810) [µg/mL] | MIC ([14]; clinical isolate MCC 10990) [µg/mL] | MIC ([14]; clinical isolate MCC 11495) [µg/mL] | MIC ([14]; clinical isolate MCC 11676) [µg/mL] | further results
Moxifloxacin | – | – | – | – | – | – | – | – | – | – | MIC90 [1]: 0.06 µg/mL; MIC90 [2]: 0.06 µg/mL; MIC90 [3]: 8.0 µg/mL; MIC90 [4]: 4.0 µg/mL; MIC90 [5]: 0.13 µg/mL; MIC90 [6]: 4.0 µg/mL; MIC90 [7]: 4.0 µg/mL; MIC90 [8]: 0.25 µg/mL; MIC90 [9]: 0.25 µg/mL; MIC90 [10]: 0.25 µg/mL; MIC90 [11]: 2.0 µg/mL; MIC90 [12]: 0.25 µg/mL
NC[C@H]1O[C@H](O[C@H]2[C@H](O)[C@@H](O[C@H]3O[C@H](CO)[C@@H](O)[C@H](N)[C@H]3O)[C@H](N)C[C@@H]2N)[C@H](N)C[C@@H]1O [Tobramycin] | 16 (≈ 34.2 µM) | 16 (≈ 34.2 µM) | 16 (≈ 34.2 µM) | 16 (≈ 34.2 µM) | 16 (≈ 34.2 µM) | 32 (≈ 68.4 µM) | 4 (≈ 8.56 µM) | 4 (≈ 8.56 µM) | 4 (≈ 8.56 µM) | 16 (≈ 34.2 µM) | –
Gentamicin | – | – | – | – | – | – | – | – | – | – | minimum inhibitory concentration (MIC) ([13]; clinical isolate MCC 11316): 2.0 micrograms per milliliter; minimum inhibitory concentration (MIC) ([13]; clinical isolate MCC 11558): 2.0 micrograms per milliliter; minimum inhibitory concentration (MIC) ([13]; clinical isolate MCC 11639): 2.0 micrograms per milliliter; minimum inhibitory concentration (MIC) ([13]; clinical isolate MCC 11653): 2.0 micrograms per milliliter; minimum inhibitory concentration (MIC) ([13]; clinical isolate MCC 11699): 2.0 micrograms per milliliter; minimum inhibitory concentration (MIC) ([14]; clinical isolate MCC 10647): 8.0 micrograms per milliliter; minimum inhibitory concentration (MIC) ([14]; clinical isolate MCC 10810): 4.0 micrograms per milliliter; minimum inhibitory concentration (MIC) ([14]; clinical isolate MCC 10990): 4.0 micrograms per milliliter; minimum inhibitory concentration (MIC) ([14]; clinical isolate MCC 11495): 16 micrograms per milliliter; minimum inhibitory concentration (MIC) ([14]; clinical isolate MCC 11676): 4.0 micrograms per milliliter
Cc1onc(-c2ccccc2)c1C(=O)N[C@@H]1C(=O)N2[C@@H]1SC(C)(C)[C@@H]2C(=O)O [Oxacillin] | 8 (≈ 19.9 µM) | 16 (≈ 39.9 µM) | 32 (≈ 79.7 µM) | 32 (≈ 79.7 µM) | 32 (≈ 79.7 µM) | 2 (≈ 4.98 µM) | 4 (≈ 9.96 µM) | 2 (≈ 4.98 µM) | 4 (≈ 9.96 µM) | 2 (≈ 4.98 µM) | –
CCC[C@@H]1C[C@@H](C(=O)N[C@@H]([C@H]2O[C@H](SC)[C@H](O)[C@@H](O)[C@H]2O)[C@H](C)Cl)N(C)C1 [Clindamycin] | 4 (≈ 9.41 µM) | 4 (≈ 9.41 µM) | 4 (≈ 9.41 µM) | 4 (≈ 9.41 µM) | 4 (≈ 9.41 µM) | 0.03 (≈ 0.0706 µM) | 0.03 (≈ 0.0706 µM) | 0.03 (≈ 0.0706 µM) | 0.03 (≈ 0.0706 µM) | 0.03 (≈ 0.0706 µM) | –
CC[C@H]1OC(=O)[C@H](C)[C@@H](O[C@H]2C[C@@](C)(OC)[C@@H](O)[C@H](C)O2)[C@H](C)[C@@H](O[C@@H]2O[C@H](C)C[C@H](N(C)C)[C@H]2O)[C@](C)(O)C[C@@H](C)C(=O)[C@H](C)[C@@H](O)[C@]1(C)O [Erythromycin] | 1 (≈ 1.36 µM) | 2 (≈ 2.73 µM) | 2 (≈ 2.73 µM) | 0.5 (≈ 0.681 µM) | 0.5 (≈ 0.681 µM) | 0.03 (≈ 0.0409 µM) | 0.03 (≈ 0.0409 µM) | 0.03 (≈ 0.0409 µM) | 0.03 (≈ 0.0409 µM) | 0.03 (≈ 0.0409 µM) | –
Polymyxin B | – | – | – | – | – | – | – | – | – | – | minimum inhibitory concentration (MIC) ([13]; clinical isolate MCC 11316): 32.5 micrograms per milliliter; minimum inhibitory concentration (MIC) ([13]; clinical isolate MCC 11558): 32.5 micrograms per milliliter; minimum inhibitory concentration (MIC) ([13]; clinical isolate MCC 11639): 16 micrograms per milliliter; minimum inhibitory concentration (MIC) ([13]; clinical isolate MCC 11653): 16 micrograms per milliliter; minimum inhibitory concentration (MIC) ([13]; clinical isolate MCC 11699): 16 micrograms per milliliter; minimum inhibitory concentration (MIC) ([14]; clinical isolate MCC 10647): 1040 micrograms per milliliter; minimum inhibitory concentration (MIC) ([14]; clinical isolate MCC 10810): 260 micrograms per milliliter; minimum inhibitory concentration (MIC) ([14]; clinical isolate MCC 10990): 260 micrograms per milliliter; minimum inhibitory concentration (MIC) ([14]; clinical isolate MCC 11495): 1040 micrograms per milliliter; minimum inhibitory concentration (MIC) ([14]; clinical isolate MCC 11676): 16 micrograms per milliliter
O=C(N[C@H](CO)[C@H](O)c1ccc([N+](=O)[O-])cc1)C(Cl)Cl [Chloramphenicol] | 16 (≈ 49.5 µM) | 16 (≈ 49.5 µM) | 16 (≈ 49.5 µM) | 16 (≈ 49.5 µM) | 16 (≈ 49.5 µM) | 1 (≈ 3.09 µM) | 1 (≈ 3.09 µM) | 1 (≈ 3.09 µM) | 1 (≈ 3.09 µM) | 1 (≈ 3.09 µM) | –
CN(C)[C@@H]1C(O)=C(C(N)=O)C(=O)[C@@]2(O)C(O)=C3C(=O)c4c(O)cccc4[C@@](C)(O)[C@H]3C[C@@H]12 [Tetracycline] | 1 (≈ 2.25 µM) | 1 (≈ 2.25 µM) | 1 (≈ 2.25 µM) | 1 (≈ 2.25 µM) | 1 (≈ 2.25 µM) | 1 (≈ 2.25 µM) | 1 (≈ 2.25 µM) | 1 (≈ 2.25 µM) | 1 (≈ 2.25 µM) | 1 (≈ 2.25 µM) | –
Neomycin | – | – | – | – | – | – | – | – | – | – | minimum inhibitory concentration (MIC) ([13]; clinical isolate MCC 11316): 1.0 micrograms per milliliter; minimum inhibitory concentration (MIC) ([13]; clinical isolate MCC 11558): 1.0 micrograms per milliliter; minimum inhibitory concentration (MIC) ([13]; clinical isolate MCC 11639): 1.0 micrograms per milliliter; minimum inhibitory concentration (MIC) ([13]; clinical isolate MCC 11653): 1.0 micrograms per milliliter; minimum inhibitory concentration (MIC) ([13]; clinical isolate MCC 11699): 1.0 micrograms per milliliter; minimum inhibitory concentration (MIC) ([14]; clinical isolate MCC 10647): 8.0 micrograms per milliliter; minimum inhibitory concentration (MIC) ([14]; clinical isolate MCC 10810): 2.0 micrograms per milliliter; minimum inhibitory concentration (MIC) ([14]; clinical isolate MCC 10990): 2.0 micrograms per milliliter; minimum inhibitory concentration (MIC) ([14]; clinical isolate MCC 11495): 8.0 micrograms per milliliter; minimum inhibitory concentration (MIC) ([14]; clinical isolate MCC 11676): 2.0 micrograms per milliliter
CC1COc2c(N3CCN(C)CC3)c(F)cc3c(=O)c(C(=O)O)cn1c23 (stereo not shown) [Ofloxacin] | 4 (≈ 11.1 µM) | 4 (≈ 11.1 µM) | 4 (≈ 11.1 µM) | 4 (≈ 11.1 µM) | 4 (≈ 11.1 µM) | 16 (≈ 44.3 µM) | 32 (≈ 88.6 µM) | 8 (≈ 22.1 µM) | 16 (≈ 44.3 µM) | 8 (≈ 22.1 µM) | –
